# From patent US9549985B2, “Compositions comprising polymers prepared from 2-hydroxyalkyl acids” (UNIVERSITE DE GENEVE, priority 2010, dated 2017)
# Assay: Solubility of Haloperidol in the hexPLA matrix
# Type: physicochemical
# Conditions: depends on polymer molecular weight
smiles,measurement,value
O=C(CCCN1CCC(O)(c2ccc(Cl)cc2)CC1)c1ccc(F)cc1 [Haloperidol],Solubility of Haloperidol in hexPLA matrix,dissolvable
